In ChEMBL document CHEMBL1201862, “PubChem BioAssay data set” (2004):
Activity calls are given as the source filed them.

Legend:
Vero [1] = experiment: West Nile virus antiviral activity, cell-based, CPE readout (AID 1621); format: functional; conditions: Chlorocebus sabaeus
[2] = inhibitors of firefly luciferase expression or activity, dose response, H4 neuroglioma cells, luminescence (AID 1990); format: functional, cell-based
[3] = Luminescence Cell-Based Dose Response HTS to Identify Inhibitors of 5'UTR Stem-Loop Driven Prion Protein mRNA Translation in H4 Neuroglioblastoma Cells. [Related pubchem assays: 1827 (Project Summary), 1813 (Primary HTS)]; format: functional
[4] = HepG2 cell cytotoxicity, dose response, cytotoxicity control for Shn3 inhibitor project, CellTiter-Glo, cherry-picked (AID 624134); format: functional, cell-based
[5] = inhibitors of SNCA 5'UTR-driven reporter translation, confirmation, H4 neuroglioma cells, luminescence (AID 1988); format: functional, cell-based
[6] = control 3'UTR Renilla luciferase suppression, dose response, counter-screen for Shn3 inhibitor project, cell-based, Clone20-Shn3RL, cherry-picked (AID 624133); format: functional
[7] = Shn3 3'UTR reporter inhibitors, dose response, cell-based, Clone20 osteoblasts, firefly luciferase, cherry-picked (AID 624132); format: functional;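 note: firefly luciferase luminescence from reporter carrying the Shn3 3'UTR in osteoblasts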
[8] = molecular target: Photoreceptor-specific nuclear receptor (Homo sapiens, UniProt Q9Y5X4); format: functional, cell-based;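 note: CHO-S cells with Gal4-NCOR and VP16-NR2E3 two-hybrid luciferase reporter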
[9] = Luminescence Cell-Based Dose Retest to Confirm Inhibitors of Cancer Stem Cells. [Related pubchem assays (depositor defined):AID2717, AID2721]; format: functional; conditions: Homo sapiens
[10] = molecular target: Hepatocyte nuclear factor 4-alpha (Homo sapiens, UniProt P41235); format: functional, cell-based;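 note: biochemical luminescence-based dose-response counterscreen measuring inhibition of HNF4 dimerization, run alongside a screen for blockers of ABHD5–perilipin-5 interaction; split luciferase complementation of HNF4 fusion proteins in cell lysate measuring dimerization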
Vero [11] = experiment: cells; format: functional; conditions: Chlorocebus sabaeus
[12] = molecular target: T1, Small ubiquitin-related modifier 1 (Homo sapiens, UniProt P63165); experiment: inhibitors of SUMO1 peptide binding, dose response, biochemical, fluorescence polarization, uHTS hits (AID 624382); format: functional; conditions: read-out: IC50_Mean
Bcl-2-like protein 1 = Bcl-2-like protein 1 (Homo sapiens, UniProt Q07817); experiment: BCL-XL inhibitors, dose response, selectivity assay for MCL1 inhibitor project, biochemical, fluorescence polarization, 1536-well (AID 2218)
[13] = molecular target: T1, Small ubiquitin-related modifier 1; experiment: inhibitors of SUMO1 partner interactions, dose response, biochemical, FRET (AID 624383); format: functional; conditions: read-out: IC50_Mean
[14] = molecular target: Induced myeloid leukemia cell differentiation protein Mcl-1 (Homo sapiens, UniProt Q07820); experiment: MCL1-BIM BH3 interaction inhibitors, dose response, biochemical, fluorescence polarization, BIM-BH3 peptide, 1536-well (AID 2217)
[15] = molecular target: DNA (cytosine-5)-methyltransferase 1 (Homo sapiens, UniProt P26358); experiment: DNMT1 methyltransferase inhibitors, confirmation, biochemical, fluorescent molecular beacon (AID 602386); format: functional
[16] = molecular target: T2, Replicative DNA helicase DnaB (Mycobacterium tuberculosis, UniProt P9WMR3); experiment: DnaB intein splicing inhibitors, dose response, biochemical, cell-free fluorescence (AID 449749); format: functional
T2 sequence (P9WMR3 whole entry): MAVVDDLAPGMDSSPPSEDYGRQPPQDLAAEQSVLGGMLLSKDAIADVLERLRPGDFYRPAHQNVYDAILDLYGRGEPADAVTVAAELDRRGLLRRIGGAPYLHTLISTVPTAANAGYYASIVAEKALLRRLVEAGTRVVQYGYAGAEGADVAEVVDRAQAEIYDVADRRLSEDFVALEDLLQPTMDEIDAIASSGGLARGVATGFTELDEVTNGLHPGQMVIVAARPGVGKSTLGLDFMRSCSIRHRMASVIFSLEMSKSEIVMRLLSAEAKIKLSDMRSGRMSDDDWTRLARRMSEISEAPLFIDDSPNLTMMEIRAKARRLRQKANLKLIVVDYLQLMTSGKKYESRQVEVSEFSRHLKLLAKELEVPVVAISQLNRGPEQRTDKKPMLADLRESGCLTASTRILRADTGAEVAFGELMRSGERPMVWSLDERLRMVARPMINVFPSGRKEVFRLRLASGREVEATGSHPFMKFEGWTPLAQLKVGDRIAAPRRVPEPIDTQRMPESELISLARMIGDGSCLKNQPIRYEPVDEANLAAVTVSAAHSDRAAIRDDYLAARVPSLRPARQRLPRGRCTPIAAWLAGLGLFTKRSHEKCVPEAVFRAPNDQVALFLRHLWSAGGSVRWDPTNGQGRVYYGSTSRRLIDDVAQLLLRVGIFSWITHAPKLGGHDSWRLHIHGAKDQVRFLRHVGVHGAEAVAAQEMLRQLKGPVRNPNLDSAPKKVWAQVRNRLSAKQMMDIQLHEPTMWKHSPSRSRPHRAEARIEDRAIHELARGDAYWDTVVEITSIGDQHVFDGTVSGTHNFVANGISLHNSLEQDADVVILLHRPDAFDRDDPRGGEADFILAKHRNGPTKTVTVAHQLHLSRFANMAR

Protein RecA = molecular target: T3, Protein RecA (Mycobacterium tuberculosis, UniProt P9WHJ3); experiment: Fluorescence Cell-Free Homogeneous Dose Retest to Identify Inhibitors of RecA-Intein Splicing Activity. [Related pubchem assays (depositor defined):AID2097, AID2223, AID489010, AID492950]; format: functional
T3 sequence (P9WHJ3 whole entry): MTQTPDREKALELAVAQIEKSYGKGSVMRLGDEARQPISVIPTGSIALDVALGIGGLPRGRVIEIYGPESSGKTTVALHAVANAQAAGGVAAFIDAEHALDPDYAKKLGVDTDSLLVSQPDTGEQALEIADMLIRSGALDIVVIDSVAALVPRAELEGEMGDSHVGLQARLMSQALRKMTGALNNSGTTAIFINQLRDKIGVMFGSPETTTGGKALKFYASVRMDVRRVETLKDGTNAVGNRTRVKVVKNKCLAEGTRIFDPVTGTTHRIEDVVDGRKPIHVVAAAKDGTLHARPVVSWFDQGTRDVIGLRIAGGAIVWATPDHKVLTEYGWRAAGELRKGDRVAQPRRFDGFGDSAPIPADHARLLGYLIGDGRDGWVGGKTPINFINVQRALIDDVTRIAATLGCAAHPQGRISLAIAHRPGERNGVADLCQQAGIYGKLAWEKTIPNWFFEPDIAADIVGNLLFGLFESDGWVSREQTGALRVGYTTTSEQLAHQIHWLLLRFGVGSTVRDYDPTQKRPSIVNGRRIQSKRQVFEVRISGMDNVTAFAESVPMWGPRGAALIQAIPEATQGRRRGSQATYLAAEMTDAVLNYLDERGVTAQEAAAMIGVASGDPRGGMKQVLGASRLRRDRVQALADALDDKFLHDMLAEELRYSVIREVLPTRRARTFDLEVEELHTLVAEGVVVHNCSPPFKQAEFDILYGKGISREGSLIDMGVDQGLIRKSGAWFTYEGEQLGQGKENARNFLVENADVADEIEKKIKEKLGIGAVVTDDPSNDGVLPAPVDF

[17] = molecular target: Mitochondrial peptide methionine sulfoxide reductase (Bos taurus, UniProt P54149); format: functional;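 note: absorbance read-out, biochemical high-throughput dose-response screen for MsrA inhibitors, confirmatory; recombinant bovine MsrA coupled to E. coli TrxB with NADPH and selenocystamine; potency is for inhibitors of MsrA activity on DMSO substrate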
Sequence of Mitochondrial peptide methionine sulfoxide reductase (P54149 whole entry): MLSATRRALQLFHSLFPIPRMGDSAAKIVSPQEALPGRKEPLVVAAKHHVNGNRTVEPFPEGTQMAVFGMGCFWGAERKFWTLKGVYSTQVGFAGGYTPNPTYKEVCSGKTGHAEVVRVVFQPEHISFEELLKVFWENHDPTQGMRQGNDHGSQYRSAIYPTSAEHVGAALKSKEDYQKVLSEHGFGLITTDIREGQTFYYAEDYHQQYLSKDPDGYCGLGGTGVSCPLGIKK

T1 sequence (P63165 whole entry): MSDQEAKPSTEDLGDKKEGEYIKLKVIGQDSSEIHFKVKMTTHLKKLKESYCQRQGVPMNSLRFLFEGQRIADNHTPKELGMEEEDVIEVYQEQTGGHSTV
Sequence of Photoreceptor-specific nuclear receptor (Q9Y5X4 whole entry, the tested form may be a part): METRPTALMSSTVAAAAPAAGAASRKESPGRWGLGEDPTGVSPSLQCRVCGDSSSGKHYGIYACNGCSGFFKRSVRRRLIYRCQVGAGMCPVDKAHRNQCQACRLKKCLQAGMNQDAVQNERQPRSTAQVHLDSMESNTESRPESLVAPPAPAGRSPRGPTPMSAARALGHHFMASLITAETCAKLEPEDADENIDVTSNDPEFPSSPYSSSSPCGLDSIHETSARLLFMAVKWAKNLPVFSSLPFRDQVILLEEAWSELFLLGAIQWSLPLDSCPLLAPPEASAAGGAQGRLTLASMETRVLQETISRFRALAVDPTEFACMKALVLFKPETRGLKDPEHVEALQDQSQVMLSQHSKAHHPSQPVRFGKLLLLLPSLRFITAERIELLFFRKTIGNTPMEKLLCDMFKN
Sequence of DNA (cytosine-5)-methyltransferase 1 (P26358 whole entry): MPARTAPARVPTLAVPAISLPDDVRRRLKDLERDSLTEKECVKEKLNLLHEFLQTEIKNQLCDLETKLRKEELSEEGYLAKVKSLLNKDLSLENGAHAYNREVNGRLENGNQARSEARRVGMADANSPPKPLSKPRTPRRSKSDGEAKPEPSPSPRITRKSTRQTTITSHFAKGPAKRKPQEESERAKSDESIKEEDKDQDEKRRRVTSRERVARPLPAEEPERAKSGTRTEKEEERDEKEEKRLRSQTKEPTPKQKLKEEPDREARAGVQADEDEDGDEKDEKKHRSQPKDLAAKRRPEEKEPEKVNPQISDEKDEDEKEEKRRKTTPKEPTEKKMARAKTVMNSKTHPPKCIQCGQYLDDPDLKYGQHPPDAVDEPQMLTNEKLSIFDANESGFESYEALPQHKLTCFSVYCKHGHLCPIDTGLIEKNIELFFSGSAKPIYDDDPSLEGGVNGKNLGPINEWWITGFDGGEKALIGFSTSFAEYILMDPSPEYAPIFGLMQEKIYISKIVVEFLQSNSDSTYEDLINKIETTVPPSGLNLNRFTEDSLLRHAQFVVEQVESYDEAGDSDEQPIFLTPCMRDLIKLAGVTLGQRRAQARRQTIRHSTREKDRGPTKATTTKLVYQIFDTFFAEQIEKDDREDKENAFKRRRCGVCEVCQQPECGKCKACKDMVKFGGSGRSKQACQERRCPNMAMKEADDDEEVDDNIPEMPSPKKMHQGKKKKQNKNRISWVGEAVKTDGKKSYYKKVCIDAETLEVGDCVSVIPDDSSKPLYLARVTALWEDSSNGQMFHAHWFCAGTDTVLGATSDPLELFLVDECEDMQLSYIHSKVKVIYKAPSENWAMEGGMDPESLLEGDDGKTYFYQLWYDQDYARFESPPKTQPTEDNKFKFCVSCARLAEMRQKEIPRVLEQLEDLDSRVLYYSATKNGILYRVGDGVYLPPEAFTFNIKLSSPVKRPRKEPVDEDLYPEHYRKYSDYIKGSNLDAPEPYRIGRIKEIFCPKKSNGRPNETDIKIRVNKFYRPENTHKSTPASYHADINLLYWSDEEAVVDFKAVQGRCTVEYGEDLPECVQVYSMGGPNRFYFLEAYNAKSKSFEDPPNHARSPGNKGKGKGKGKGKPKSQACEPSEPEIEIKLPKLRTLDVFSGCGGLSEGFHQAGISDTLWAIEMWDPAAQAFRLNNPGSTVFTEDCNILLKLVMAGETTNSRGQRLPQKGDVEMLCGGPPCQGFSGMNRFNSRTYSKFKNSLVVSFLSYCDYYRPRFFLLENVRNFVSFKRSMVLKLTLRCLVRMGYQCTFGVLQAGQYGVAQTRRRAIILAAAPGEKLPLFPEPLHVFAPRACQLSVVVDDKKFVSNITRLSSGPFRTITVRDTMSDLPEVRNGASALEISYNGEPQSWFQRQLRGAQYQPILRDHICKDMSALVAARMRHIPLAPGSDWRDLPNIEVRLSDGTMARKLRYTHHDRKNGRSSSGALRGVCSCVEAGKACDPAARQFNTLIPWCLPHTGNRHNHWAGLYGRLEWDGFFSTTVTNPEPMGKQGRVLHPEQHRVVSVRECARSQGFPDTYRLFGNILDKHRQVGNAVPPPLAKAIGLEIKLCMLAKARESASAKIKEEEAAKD
Sequence of Hepatocyte nuclear factor 4-alpha (P41235 whole entry, the tested form may be a part): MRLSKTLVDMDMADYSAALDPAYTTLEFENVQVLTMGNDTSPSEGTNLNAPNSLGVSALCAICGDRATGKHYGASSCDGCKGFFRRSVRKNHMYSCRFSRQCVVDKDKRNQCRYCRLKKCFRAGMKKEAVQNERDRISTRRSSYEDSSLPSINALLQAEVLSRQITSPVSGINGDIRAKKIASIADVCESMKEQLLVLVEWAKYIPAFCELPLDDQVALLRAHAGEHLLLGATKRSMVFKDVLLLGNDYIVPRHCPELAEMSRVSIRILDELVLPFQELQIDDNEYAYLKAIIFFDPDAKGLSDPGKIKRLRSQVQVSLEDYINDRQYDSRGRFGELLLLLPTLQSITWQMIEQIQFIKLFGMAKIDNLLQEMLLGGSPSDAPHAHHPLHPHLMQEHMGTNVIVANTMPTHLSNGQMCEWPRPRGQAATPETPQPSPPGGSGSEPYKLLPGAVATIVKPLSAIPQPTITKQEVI
Sequence of Induced myeloid leukemia cell differentiation protein Mcl-1 (Q07820 whole entry): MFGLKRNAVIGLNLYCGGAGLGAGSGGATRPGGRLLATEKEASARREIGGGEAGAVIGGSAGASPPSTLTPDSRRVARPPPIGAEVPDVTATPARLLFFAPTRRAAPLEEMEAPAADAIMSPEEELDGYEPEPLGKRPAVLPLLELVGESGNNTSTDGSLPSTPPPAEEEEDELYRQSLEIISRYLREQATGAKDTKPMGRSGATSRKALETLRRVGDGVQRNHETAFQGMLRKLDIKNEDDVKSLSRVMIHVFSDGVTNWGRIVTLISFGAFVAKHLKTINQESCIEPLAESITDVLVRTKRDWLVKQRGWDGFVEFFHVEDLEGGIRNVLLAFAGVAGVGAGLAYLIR
Sequence of Bcl-2-like protein 1 (Q07817 whole entry): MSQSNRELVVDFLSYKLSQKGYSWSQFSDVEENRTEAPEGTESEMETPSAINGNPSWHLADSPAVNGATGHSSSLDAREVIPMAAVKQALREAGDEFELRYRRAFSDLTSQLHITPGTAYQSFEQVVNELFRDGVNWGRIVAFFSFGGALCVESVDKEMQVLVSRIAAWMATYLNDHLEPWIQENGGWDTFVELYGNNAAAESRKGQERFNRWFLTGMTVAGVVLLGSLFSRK

## COc1cc2c(OC(C)=O)c3c(c(-c4ccc5c(c4)OCO5)c2cc1OC)C(=O)OC3
Vero [1]
  IC50: 21.1 µM (active)
[2]
  EC50: 8.65 µM (active)
[3]
  EC50: 14.4 µM (active)
[4]
  AC50: 1.38 µM (active)
[5]
  EC50: 4.4 µM (active)
[6]
  AC50: 24.5 µM (active)
[7]
  AC50: 1.8 µM (active)
[8]
  IC50: 1.83 µM (active)

## Cc1ccc(/C=C/C(=O)c2cc(Br)ccc2OC(=O)c2ccco2)cc1
[9]
  AC50: 4.76 µM (active)
[10]
  IC50: 1.96 µM (active)
Vero [11]
  CC50: 24.4 µM (active)

## CCOc1ccc(NC(=O)c2cccc(-n3cccc3)c2)cc1S(=O)(=O)N1CCOCC1
[12]
  IC50: > 66.6 µM (inactive)
Bcl-2-like protein 1
  IC50: > 109 µM (not active)
[13]
  IC50: 3.29 µM (active)
[14]
  IC50: > 4.03 µM (active)
[15]
  IC50: 9.08 µM (active)

## CS/C(=C/[N+](=O)[O-])Nc1cccc2c1C(C)CC2(C)C (centres undefined)
[16]
  AC50: 17.5 µM (active)
Protein RecA
  EC50: 5.21 µM (active)
[17]
  IC50: 44.8 µM (inactive)
